From PubChem BioAssay (NCI)
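The compound was tested at five concentrations on cells cultured in 96-well plates, with a 48-hour exposure period. TGI denotes the concentration required for complete inhibition of growth.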

Assays:
Assay in all cases: NCI tumour cell line growth inhibition, 48 h
RXF-631 renal = tested on: RXF-631 renal
HOP-18 NSCLC = tested on: HOP-18 NSCLC
M19-MEL melanoma = tested on: M19-MEL melanoma
DMS 114 small cell lung = tested on: DMS 114 small cell lung
MDA-MB-435 = tested on: MDA-MB-435
BT-549 breast = tested on: BT-549 breast
MDA-MB-231 breast = tested on: MDA-MB-231 breast
MCF7 breast = tested on: MCF7 breast

| Structure (SMILES) | TGI (RXF-631 renal) | TGI (HOP-18 NSCLC) | TGI (M19-MEL melanoma) | TGI (DMS 114 small cell lung) | TGI (MDA-MB-435) | TGI (BT-549 breast) | TGI (MDA-MB-231 breast) | TGI (MCF7 breast) |
| --- | --- | --- | --- | --- | --- | --- | --- | --- |
| Cc1nc2ccc(C(F)(F)F)cc2nc1Nc1ccc(Cl)c(Cl)c1 | 20.1 µM | 29.5 µM | 24.4 µM |  |  |  |  |  |
| CCC(=O)c1cn(C)c(=O)c2ccccc12 | > 100 µM |  |  | > 100 µM |  |  |  |  |
| Nc1ccc(C(=O)N/C(=C\C=C\c2ccco2)c2nc3[nH]c(=S)[nH]c(=O)c3[nH]2)cc1 | > 100 µM |  | > 100 µM |  |  |  |  |  |
| CCOC(=O)C(C)(C)Oc1ccc2c(=O)cc(-c3ccc(Cl)cc3)oc2c1 | > 100 µM |  | > 100 µM | > 100 µM |  |  |  |  |
| C=CCc1cc2cccc(OC)c2oc1=O | > 100 µM | > 100 µM | > 100 µM | > 100 µM |  |  |  |  |
| CCCCC#COP(=O)(OCC)OCC | > 100 µM |  | > 100 µM | > 100 µM |  |  |  |  |
| CCN(CC)CCn1c2c3ccccc3ccc2c2oc(=O)c3ccccc3c21 | > 100 µM | > 100 µM | > 100 µM | > 100 µM |  |  |  |  |
| Cc1cc2c(CC(=O)O)[nH]nc2c(C(=O)O)c1C | > 100 µM | > 100 µM | > 100 µM |  |  |  |  |  |
| CC(=O)O/N=C/c1ncccc1CO | > 100 µM | > 100 µM | > 100 µM | > 100 µM |  |  |  |  |
| CC1=C2C(O)C(C(C)CO)C(O)CC2(C)C(O)CC1 (stereo not drawn) | > 100 µM |  | > 100 µM | > 100 µM |  |  |  |  |
| Cc1nc(N)sc1C(=O)/C=C/c1ccc(/C=C/C(=O)c2sc(NC(=O)CCCCCCCCC(=O)Nc3nc(C)c(C(=O)/C=C/c4ccc(/C=C/C(=O)c5sc(N)nc5C)cc4)s3)nc2C)cc1 | > 100 µM | > 100 µM | > 100 µM | > 100 µM |  |  |  |  |
| CC(C)=CC(C(O)c1ccccc1)S(=O)(=O)c1nccn1C (stereo not drawn) | > 100 µM | > 100 µM | > 100 µM | > 100 µM |  |  |  |  |
| O=[N+]([O-])c1c(/C=N/Nc2ccccc2)oc(-c2ccc3c(c2)OCO3)c1-c1ccc2c(c1)OCO2 | > 100 µM |  | > 100 µM | > 100 µM |  |  |  |  |
| CC1(C)C(=O)N(c2ccccc2)C(=O)N1c1nc2ccccc2[nH]1 | > 100 µM | > 100 µM | > 100 µM | > 100 µM |  |  |  |  |
| O=C1C=C(c2c(O)ccc3ccccc23)c2ccccc2C1=O | 32.9 µM | 23.3 µM | 8.81 µM | 6.71 µM | 5.86 µM | 5.32 µM | 8.79 µM | 2.11 µM |
| N#CCCc1nc2ccc(Br)cc2c(=O)n1CCO | > 100 µM |  | > 100 µM | > 100 µM |  |  |  |  |
| NC(N)=N/N=C(/c1nc2ccc([N+](=O)[O-])cc2[nH]c1=O)C(O)c1ccco1 (stereo not drawn) |  | > 100 µM | > 100 µM | > 100 µM |  |  |  |  |
| CCOC(=O)CCC(=O)C1c2cccc(O)c2C(=O)c2c(O)cccc21 |  | 3.33 µM | 2.29 µM | 1.65 µM |  |  |  |  |
